From patent US20230382925A1, “MODULATORS OF CYSTIC FIBROSIS TRANSMEMBRANE CONDUCTANCE REGULATOR” (VERTEX PHARMACEUTICALS INCORPORATED, priority 2020, published 2023)
pEC50: −log10 of the molar value. Read-outs that look alike come from different tables or passages of the source. One block for each compound: values may come before it.

Experiments:
[1] = amide bond, 13-membered ring, DMF
CFTR [2] = molecular target: T1, CFTR (Homo sapiens, UniProt P13569); test: Membrane Potential Dye, Enteroid Assay A; assay type: cell-based; conditions: for pEC50: read-out: Ent. A EC50
Outline: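 Primary human intestinal enteroid cells exposed to compound for 18–24 hours at 37 °C, then loaded 25 min with methyl oxonol membrane potential dye plus CaCC inhibitors. Chloride transport triggered in chloride-free buffer with 10 μM forskolin, 100 μM IBMX and 300 nM Compound III, fluorescence read 15 min; % Activity relative to a triple-combination corrector/potentiator control.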

CFTR [3] = molecular target: T1, CFTR; test: Membrane Potential Dye, Enteroid Assay B; assay type: cell-based
Outline: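 Human intestinal enteroid cells exposed to compound 18-24 h at 37 °C, then loaded with methyl oxonol membrane-potential dye plus CaCC blockers. Chloride transport triggered in chloride-free buffer with 10 μM forskolin, 100 μM IBMX, 300 nM Compound III; fluorescence read 15 min, expressed as % of triple-corrector/potentiator combination control.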

[4] = Table 10, read-out: Ent. B EC50

T1 sequence (P13569 with tags, fused parts or gaps DEL508-508): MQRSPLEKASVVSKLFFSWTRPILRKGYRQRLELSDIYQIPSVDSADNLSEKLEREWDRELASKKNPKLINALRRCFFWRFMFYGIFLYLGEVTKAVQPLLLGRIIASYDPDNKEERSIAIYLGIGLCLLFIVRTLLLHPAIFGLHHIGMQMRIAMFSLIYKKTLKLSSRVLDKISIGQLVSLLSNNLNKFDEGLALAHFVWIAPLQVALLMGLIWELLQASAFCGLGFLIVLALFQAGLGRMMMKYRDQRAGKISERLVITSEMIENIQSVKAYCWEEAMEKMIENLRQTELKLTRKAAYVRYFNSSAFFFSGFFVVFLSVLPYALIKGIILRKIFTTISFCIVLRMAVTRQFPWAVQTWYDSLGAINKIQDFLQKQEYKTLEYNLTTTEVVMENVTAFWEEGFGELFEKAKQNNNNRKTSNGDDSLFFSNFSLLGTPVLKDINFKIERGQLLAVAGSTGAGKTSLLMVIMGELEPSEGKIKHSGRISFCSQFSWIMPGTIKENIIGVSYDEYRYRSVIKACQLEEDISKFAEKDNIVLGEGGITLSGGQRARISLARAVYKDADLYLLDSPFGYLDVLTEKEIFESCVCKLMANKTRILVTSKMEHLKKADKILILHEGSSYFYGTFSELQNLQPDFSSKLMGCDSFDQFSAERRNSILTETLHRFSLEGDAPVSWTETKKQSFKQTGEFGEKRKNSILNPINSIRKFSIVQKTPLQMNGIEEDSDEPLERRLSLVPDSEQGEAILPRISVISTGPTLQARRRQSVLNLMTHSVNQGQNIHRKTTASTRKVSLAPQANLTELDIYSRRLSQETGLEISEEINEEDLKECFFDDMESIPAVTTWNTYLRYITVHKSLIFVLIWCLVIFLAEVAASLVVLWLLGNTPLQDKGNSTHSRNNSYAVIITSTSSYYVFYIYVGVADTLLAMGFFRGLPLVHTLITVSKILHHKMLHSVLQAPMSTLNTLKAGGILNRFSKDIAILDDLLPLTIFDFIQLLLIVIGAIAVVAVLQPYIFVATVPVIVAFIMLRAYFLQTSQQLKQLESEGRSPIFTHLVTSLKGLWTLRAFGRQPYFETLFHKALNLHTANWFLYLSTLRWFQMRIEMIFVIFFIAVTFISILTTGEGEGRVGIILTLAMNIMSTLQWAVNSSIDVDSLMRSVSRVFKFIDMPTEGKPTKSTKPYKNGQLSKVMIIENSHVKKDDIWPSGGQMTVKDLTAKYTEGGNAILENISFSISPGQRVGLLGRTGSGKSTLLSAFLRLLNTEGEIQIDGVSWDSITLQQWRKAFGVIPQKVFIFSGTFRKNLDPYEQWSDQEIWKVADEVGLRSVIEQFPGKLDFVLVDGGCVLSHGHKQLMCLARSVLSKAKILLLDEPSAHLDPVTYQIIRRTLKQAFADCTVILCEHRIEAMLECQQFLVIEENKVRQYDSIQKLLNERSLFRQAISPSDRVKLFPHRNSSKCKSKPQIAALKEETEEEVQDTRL

Ent. A Max Activity (%) (CFTR [2]): +++ (+++ is >60%)
pEC50 (CFTR [2]): > 6.00
Structure (SMILES): Cc1cccc(C)c1-c1cc2nc(n1)NS(=O)(=O)c1cccc(c1)C(=O)N(C1CC3(CC3)C1)[C@H](CC1CCCCC1)[C@@H](C1CC1)O2 [Compound 1, (10R,11R)-11-(Cyclohexylmethyl)-10-cyclopropyl-6-(2,6-dimethylphenyl)-2,2-dioxo-12-spiro[2.3]hexan-5-yl-9-oxa-2λ^6-thia-3,5,12,19-tetrazatricyclo[12.3.1.14,8]nonadeca-1(18),4(19),5,7,14,16-hexaen-13-one]
ring closure, yield after HPLC ([1]; from Cc1cccc(C)c1-c1cc(O[C@H](C2CC2)[C@@H](CC2CCCCC2)NC2CC3(CC3)C2)nc(NS(=O)(=O)c2cccc(C(=O)O)c2)n1, COMU/TEA, 10.8 mM, 25.0 °C, 1.0 h): 31%

Ent. A Max Activity (%) (CFTR [2]): ++ (++ is 30-60%)
pEC50 (CFTR [2]): > 6.00
Structure (SMILES): Cc1cccc(C)c1-c1cc2nc(n1)NS(=O)(=O)c1cccc(c1)C(=O)N(C1CC3(CC3)C1)[C@H](CCC(C)C)CO2 [Compound 3, (11R)-6-(2,6-Dimethylphenyl)-11-isopentyl-2,2-dioxo-12-spiro[2.3]hexan-5-yl-9-oxa-2λ^6-thia-3,5,12,19-tetrazatricyclo[12.3.1.14,8]nonadeca-1(18),4(19),5,7,14,16-hexaen-13-one]
ring closure, yield after HPLC ([1]; from Cc1cccc(C)c1-c1cc(OC[C@@H](CCC(C)C)NC2CC3(CC3)C2)nc(NS(=O)(=O)c2cccc(C(=O)O)c2)n1, HATU/DIEA, 25.0 °C, 3.0 h, 2 steps): 8%

Ent. A Max Activity (%) (CFTR [2]): +++ (+++ is >60%)
pEC50 (CFTR [2]): > 6.00
Structure (SMILES): Cc1cccc(C)c1-c1cc2nc(n1)NS(=O)(=O)c1cccc(c1)C(=O)N(C1CC(C)(C)C1)[C@H](CC(C)C)CO2 [Compound 28, (11R)-12-(3,3-Dimethylcyclobutyl)-6-(2,6-dimethylphenyl)-11-isobutyl-2,2-dioxo-9-oxa-2λ^6-thia-3,5,12,19-tetrazatricyclo[12.3.1.14,8]nonadeca-1(18),4(19),5,7,14,16-hexaen-13-one]
ring closure, yield after HPLC ([1]; from Cc1cccc(C)c1-c1cc(OC[C@@H](CC(C)C)NC2CC(C)(C)C2)nc(NS(=O)(=O)c2cccc(C(=O)O)c2)n1, HATU/DIEA, 18.9 mM, 25.0 °C, 2.0 h): 60%

Ent. A Max Activity (%) (CFTR [2]): +++ (+++ is >60%)
pEC50 (CFTR [2]): > 6.00
Structure (SMILES): Cc1cccc(C)c1-c1cc2nc(n1)NS(=O)(=O)c1cccc(c1)C(=O)N(C1CC3(CCOCC3)C1)[C@H](CC(C)C)CO2 [Compound 31, (11R)-6-(2,6-Dimethylphenyl)-11-isobutyl-12-(7-oxaspiro[3.5]nonan-2-yl)-2,2-dioxo-9-oxa-2λ^6-thia-3,5,12,19-tetrazatricyclo[12.3.1.14,8]nonadeca-1(18),4(19),5,7,14,16-hexaen-13-one]
ring closure, yield after HPLC ([1]; from Cc1cccc(C)c1-c1cc(OC[C@@H](CC(C)C)NC2CC3(CCOCC3)C2)nc(NS(=O)(=O)c2cccc(C(=O)O)c2)n1, HATU/DIEA, 25.0 °C, 2.0 h, 2 steps): 28%

Ent. A Max Activity (%) (CFTR [2]): ++ (++ is 30-60%)
pEC50 (CFTR [2]): > 6.00
Structure (SMILES): Cc1cccc(C)c1-c1cc2nc(n1)NS(=O)(=O)c1cccc(c1)C(=O)N(C1CC3(CCC3)C1)[C@H](CC(C)C)CO2 [Compound 32, (11R)-6-(2,6-dimethylphenyl)-11-isobutyl-2,2-dioxo-12-spiro[3.3]heptan-2-yl-9-oxa-2λ^6-thia-3,5,12,19-tetrazatricyclo[12.3.1.14,8]nonadeca-1(18),4(19),5,7,14,16-hexaen-13-one]
ring closure, yield after HPLC ([1]; from Cc1cccc(C)c1-c1cc(OC[C@@H](CC(C)C)NC2CC3(CCC3)C2)nc(NS(=O)(=O)c2cccc(C(=O)O)c2)n1, HATU/DIEA, 25.0 °C, 2.0 h, 2 steps): 44%

Ent. B Max Activity (%) (CFTR [3]; Table 9): +++ (+++ is >60%)
pEC50 (CFTR [3]; Table 9, read-out: Ent. B EC50): > 6.00
Structure (SMILES): Cc1cccc(C)c1-c1cc2nc(n1)NS(=O)(=O)c1cccc(c1)C(=O)N(C1CC(OC(C)C)C1)[C@H](CC(C)C)CO2 (stereo partly drawn) [Compound 47, (11R)-6-(2,6-Dimethylphenyl)-11-isobutyl-12-(3-isopropoxycyclobutyl)-2,2-dioxo-9-oxa-2λ^6-thia-3,5,12,19-tetrazatricyclo[12.3.1.14,8]nonadeca-1(18),4(19),5,7,14,16-hexaen-13-one]
ring closure, yield after HPLC ([1]; from Cc1cccc(C)c1-c1cc(OC[C@@H](CC(C)C)NC2CC(OC(C)C)C2)nc(NS(=O)(=O)c2cccc(C(=O)O)c2)n1, HATU/Et3N, 59.2 mM, 2.0 h): 53%

Ent. B Max Activity (%) (CFTR [3]): +++ (+++ is >60%)
pEC50 (CFTR [3]; read-out: Ent. B EC50): > 6.00
Structure (SMILES): Cc1cccc(C)c1-c1cc2nc(n1)NS(=O)(=O)c1cncc(n1)C(=O)N(C1CC3(CC3)C1)[C@H](CC(C)C)CO2 [Compound 62, (11R)-6-(2,6-Dimethylphenyl)-11-isobutyl-2,2-dioxo-12-spiro[2.3]hexan-5-yl-9-oxa-2λ^6-thia-3,5,12,16,18,19-hexazatricyclo[12.3.1.14,8]nonadeca-1(18),4(19),5,7,14,16-hexaen-13-one]
ring closure, yield after HPLC ([1]; from Cc1cccc(C)c1-c1cc(OC[C@@H](CC(C)C)NC2CC3(CC3)C2)nc(NS(=O)(=O)c2cncc(C(=O)O)n2)n1, HATU/DIEA, 15.2 mM, 12.0 h): 65%

Ent. B Max Activity (%) (CFTR [3]; Table 9): +++ (+++ is >60%)
pEC50 (CFTR [3]; Table 9, read-out: Ent. B EC50): > 6.00
Structure (SMILES): Cc1cccc(C)c1-c1cc2nc(n1)NS(=O)(=O)c1cc(n(C)n1)C(=O)N(C1CC3(CC3)C1)[C@H](CC(C)C)CO2 [Compound 74, (10R)-15-(2,6-Dimethylphenyl)-10-isobutyl-6-methyl-3,3-dioxo-9-spiro[2.3]hexan-5-yl-12-oxa-3λ^6-thia-2,5,6,9,16,17-hexazatricyclo[11.3.1.14,7]octadeca-1(17),4,7(18),13,15-pentaen-8-one]
ring closure, yield after HPLC ([1]; from Cc1cccc(C)c1-c1cc(OC[C@@H](CC(C)C)NC2CC3(CC3)C2)nc(NS(=O)(=O)c2cc(C(=O)O)n(C)n2)n1, HATU/DIPEA, 4.9 mM, 6.0 h, 2 steps): 10%

Ent. B Max Activity (%) (CFTR [3]; Table 10): +++ (+++ is >60%)
pEC50 (CFTR [3]; [4]): > 6.00
Structure (SMILES): COCCn1cc(N2C(=O)c3cccc(c3)S(=O)(=O)Nc3nc(cc(-c4c(C)cccc4C)n3)OC[C@H]2CC(C)C)cn1 [Compound 98, (11R)-6-(2,6-Dimethylphenyl)-11-isobutyl-12-[1-(2-methoxyethyl)pyrazol-4-yl]-2,2-dioxo-9-oxa-2λ^6-thia-3,5,12,19-tetrazatricyclo[12.3.1.14,8]nonadeca-1(18),4(19),5,7,14,16-hexaen-13-one]
ring closure, yield after HPLC ([1]; from COCCn1cc(N[C@@H](COc2cc(-c3c(C)cccc3C)nc(NS(=O)(=O)c3cccc(C(=O)O)c3)n2)CC(C)C)cn1, CDMT/NMM, 48.0 h, 2 steps): 9%

Ent. B Max Activity (%) (CFTR [3]): +++ (+++ is >60%)
pEC50 (CFTR [3]; read-out: Ent. B EC50): > 6.00
Structure (SMILES): Cc1cccc(C)c1-c1cc2nc(n1)NS(=O)(=O)c1cccc(c1)C(=O)N(C1CC3(CC3)C1)C[C@@H](C)O2 [Compound 180, (10R)-6-(2,6-Dimethylphenyl)-10-methyl-2,2-dioxo-12-spiro[2.3]hexan-5-yl-9-oxa-2λ^6-thia-3,5,12,19-tetrazatricyclo[12.3.1.14,8]nonadeca-1(18),4(19),5,7,14,16-hexaen-13-one]
ring closure, yield after HPLC ([1]; from Cc1cccc(C)c1-c1cc(O[C@H](C)CNC2CC3(CC3)C2)nc(NS(=O)(=O)c2cccc(C(=O)O)c2)n1, HATU/DIEA, 7.3 mM, 1.0 h, 2 steps): 6%

Ent. B Max Activity (%) (CFTR [3]; Table 10): +++ (+++ is >60%)
pEC50 (CFTR [3]; [4]): > 6.00
Structure (SMILES): Cc1cccc(C)c1-c1cc2nc(n1)NS(=O)(=O)c1cccc(c1)C(=O)N(C1Cc3ccccc3C1)[C@H](CC(C)(C)C)CO2 [Compound 183, (11R)-6-(2,6-Dimethylphenyl)-11-(2,2-dimethylpropyl)-12-indan-2-yl-2,2-dioxo-9-oxa-2λ^6-thia-3,5,12,19-tetrazatricyclo[12.3.1.14,8]nonadeca-1(18),4(19),5,7,14,16-hexaen-13-one]
ring closure, yield after HPLC ([1]; from Cc1cccc(C)c1-c1cc(OC[C@@H](CC(C)(C)C)NC2Cc3ccccc3C2)nc(NS(=O)(=O)c2cccc(C(=O)O)c2)n1, CDMT/NMM, 25.7 mM, 24.0 h): 13%

Ent. B Max Activity (%) (CFTR [3]; Table 10): +++ (+++ is >60%)
pEC50 (CFTR [3]; [4]): > 6.00
Structure (SMILES): Cc1cccc(C)c1-c1cc2nc(n1)NS(=O)(=O)c1cccc(c1)C(=O)N(c1cnn(C(C)(C)C)c1)[C@H](CC(C)(C)C)CO2 [Compound 184, (11R)-12-(1-tert-Butylpyrazol-4-yl)-6-(2,6-dimethylphenyl)-11-(2,2-dimethylpropyl)-2,2-dioxo-9-oxa-2λ^6-thia-3,5,12,19-tetrazatricyclo[12.3.1.14,8]nonadeca-1(18),4(19),5,7,14,16-hexaen-13-one]
ring closure, yield after HPLC ([1]; from Cc1cccc(C)c1-c1cc(OC[C@@H](CC(C)(C)C)Nc2cnn(C(C)(C)C)c2)nc(NS(=O)(=O)c2cccc(C(=O)O)c2)n1, CDMT/NMM, 24.9 mM, 48.0 h, 2 steps): 7%

Ent. B Max Activity (%) (CFTR [3]): +++ (+++ is >60%)
pEC50 (CFTR [3]; read-out: Ent. B EC50): > 6.00
Structure (SMILES): Cc1cccc(C)c1-c1cc2cc(n1)NS(=O)(=O)c1cccc(n1)C(=O)N(C1CC3(CC3)C1)[C@H](CC(C)C)CO2 [Compound 197, (11R)-6-(2,6-Dimethylphenyl)-11-isobutyl-2,2-dioxo-12-spiro[2.3]hexan-5-yl-9-oxa-2λ^6-thia-3,5,12,18-tetrazatricyclo[12.3.1.14,8]nonadeca-1(18),4(19),5,7,14,16-hexaen-13-one]
ring closure, yield after HPLC ([1]; from Cc1cccc(C)c1-c1cc(OC[C@@H](CC(C)C)NC2CC3(CC3)C2)cc(NS(=O)(=O)c2cccc(C(=O)O)n2)n1, HATU/DIEA, 27.1 mM, 2.0 h): 59%
